Reference: BigSolDB 2.1

COC(=O)c1cccc(C(=O)OC)n1
solubility (mole fraction)
Settings	278.15 K	283.15 K	288.15 K	293.15 K	298.15 K	303.15 K	308.15 K	313.15 K	318.15 K	323.15 K
in DMSO	–	–	–	0.0174	0.0205	0.0271	0.0323	0.0435	0.0503	0.0658
in THF	0.00553	0.00773	0.00891	0.0115	0.0138	0.0166	0.0219	0.0293	0.0373	0.046
in ethanol	0.00042	0.00068	0.00103	0.00147	0.00215	0.00323	0.00436	0.00576	0.00757	0.0101
in ethyl acetate	0.00335	0.00364	0.00549	0.0082	0.0105	0.0149	0.019	0.0261	0.0326	–
in isopentyl acetate	0.00146	0.00192	0.00252	0.00334	0.00438	0.00576	0.00729	0.00944	0.0158	0.0216
in isopropanol	0.00032	0.00049	0.00071	0.00116	0.0017	0.0022	0.0032	0.00414	0.00579	0.00785
in isopropyl acetate	0.00191	0.00235	0.00343	0.00516	0.00721	0.0094	0.0117	0.0161	0.0202	0.0262
in methanol	0.00057	0.00092	0.00142	0.00199	0.00283	0.00425	0.0055	0.0075	0.00974	0.012
in methyl acetate	0.00524	0.00759	0.0118	0.0145	0.0201	0.0255	0.0312	0.041	0.0489	0.0635
in n-butyl acetate	0.0015	0.00203	0.00286	0.00462	0.00671	0.00883	0.0113	0.0158	0.0201	0.026
in n-pentyl acetate	–	0.0027	0.0038	0.00459	0.00625	0.00851	0.0111	0.015	0.0189	0.0243
in n-propanol	0.00032	0.0005	0.00078	0.0011	0.00171	0.00228	0.00357	0.00476	0.00621	0.00839
